# Laboratory results taken from ChEMBL document CHEMBL4765299 (Eur J Med Chem, 2020).
# The source made the active and inactive calls. No cut-off for these calls is given here.
# Legend:
# H22 [1] = assay: Anti-tumor activity against mouse H22 cells allografted in ICR mice assessed as reduction in tumor weight at 30 mg/kg, iv administered daily for 21 days; format: functional; details: 504 h, time 21 day
# H22 [2] = assay: Anti-tumor activity against mouse H22 cells allografted in iv dosed ICR mice assessed as reduction in tumor weight administered daily for 21 days; format: functional, organism-based; details: dose 15-30 mg/kg/day, time 21.0 day
# K562 [3] = assay: Induction of apoptosis in human K562 cells incubated for 48 hrs by AnnexinV-FITC/propidium iodide staining based flow cytometry; format: functional, cell-based; details: dose 5-20 nM
# HUVEC [4] = assay: Anti-angiogenesis activity in HUVEC assessed as inhibition of capillary-like tube formation incubated for 6 hrs by Matrigel-based optical microscopy; format: functional, cell-based; details: Homo sapiens, dose 5-20 nM
# K562 [5] = assay: Induction of apoptosis in human K562 cells assessed as late apoptotic cells at 10 nM incubated for 48 hrs by AnnexinV-FITC/propidium iodide staining based flow cytometry analysis (reference value: 1.78%); format: functional
# [6] = Toxicity in ICR mouse allografted with mouse H22 cells assessed as heart morphological changes at 30 mg/kg, iv administered daily for 21 days by hematoxylin and eosin staining based microscopic analysis; format: organism-based; details: in vivo, 504 h, dose 30 mg/kg/day, time 21 day
# H22 [7] = assay: Antiproliferative activity against mouse H22 cells assessed as inhibition of cell growth by MTT assay; format: functional, cell-based
# H22 [8] = assay: Anti-tumor activity against mouse H22 cells allografted in ICR mice assessed as reduction in tumor weight at 15 mg/kg, iv administered daily for 21 days; format: functional; details: 504 h, time 21 day
# HUVEC [9] = assay: Inhibition of cell migration in HUVEC assessed as wound closure at 10 nM after 24 hrs by scratch wound healing assay (reference value: 76.3%); format: functional, Homo sapiens; design: scale not given: the % may be the effect or the level left
# [10] = Toxicity in ICR mouse allografted with mouse H22 cells assessed as lung morphological changes at 30 mg/kg, iv administered daily for 21 days by hematoxylin and eosin staining based microscopic analysis; format: organism-based; details: in vivo, 504 h, dose 30 mg/kg/day, time 21 day
# [11] = Inhibition of porcine brain tubulin polymerization assessed as inhibition of microtubule assembly by measuring decrease in absorbance measured for 60 mins by fluorescence based analysis; format: tissue-based, Sus scrofa
# HUVEC [12] = assay: Anti-angiogenesis activity in HUVEC assessed as inhibition of capillary-like tube formation at 5 nM incubated for 6 hrs by Matrigel-based optical microscopy; format: functional, cell-based; details: Homo sapiens
# K562 [13] = assay: Induction of apoptosis in human K562 cells assessed as early apoptotic cells at 20 nM incubated for 48 hrs by AnnexinV-FITC/propidium iodide staining based flow cytometry analysis (reference value: 1.47%); format: functional
# K562 [14] = assay: Induction of mitochondrial membrane potential depolarization in human K562 cells assessed proportion of cells with collapsed MMP at 20 nM measured after 48 hrs by JC-1 staining based flow cytometry (reference value: 1.57%); format: functional
# K562 [15] = assay: Induction of mitochondrial membrane potential depolarization in human K562 cells assessed proportion of cells with collapsed MMP at 10 nM measured after 48 hrs by JC-1 staining based flow cytometry (reference value: 1.57%); format: functional
# K562 [16] = assay: Induction of cell cycle arrest in human K562 cells assessed as accumulation at G1 phase at 5 nM incubated for 48 hrs by propidium iodide/RNase staining based flow cytometry (reference value: 38.83%); format: functional
# HUVEC [17] = assay: Inhibition of cell migration in HUVEC assessed as wound closure at 20 nM after 24 hrs by scratch wound healing assay (reference value: 76.3%); format: functional, Homo sapiens; design: scale not given: the % may be the effect or the level left
# K562 [18] = assay: Induction of mitochondrial membrane potential depolarization in human K562 cells assessed proportion of cells with collapsed MMP at 5 nM measured after 48 hrs by JC-1 staining based flow cytometry (reference value: 1.57%); format: functional
# K562 [19] = assay: Induction of apoptosis in human K562 cells assessed as late apoptotic cells at 5 nM incubated for 48 hrs by AnnexinV-FITC/propidium iodide staining based flow cytometry analysis (reference value: 1.78%); format: functional
# [20] = Toxicity in ICR mouse allografted with mouse H22 cells assessed as spleen morphological changes at 30 mg/kg, iv administered daily for 21 days by hematoxylin and eosin staining based microscopic analysis; format: organism-based; details: in vivo, 504 h, dose 30 mg/kg/day, time 21 day
# HUVEC [21] = assay: Inhibition of cell migration in HUVEC assessed as decrease in wound closure after 24 hrs by scratch wound healing assay; format: functional, cell-based; details: Homo sapiens, dose 5-20 nM
# K562 [22] = assay: Induction of cell cycle arrest in human K562 cells assessed as accumulation at G2/M phase at 10 nM incubated for 48 hrs by propidium iodide/RNase staining based flow cytometry (reference value: 7.7%); format: functional
# HUVEC [23] = assay: Anti-angiogenesis activity in HUVEC assessed as inhibition of capillary-like tube formation at 20 nM incubated for 6 hrs by Matrigel-based optical microscopy; format: functional, cell-based; details: Homo sapiens
structure (smiles),measurement,setting,value
C=C(c1cc(Cl)nc(NC)c1)c1ccc(OC)c(O)c1,inhibition in vivo at 30 mg/kg/day,H22 [1],68.7%
same,Activity,H22 [2],Dose-dependent effect
same,Activity,K562 [3],Dose-dependent effect
same,Activity,HUVEC [4],Dose-dependent effect
same,Activity,K562 [5],11.3%
same,Activity,[6],Non-Toxic
same,IC50,H22 [7],0.017 µM
same,inhibition in vivo at 15 mg/kg/day,H22 [8],58.7%
same,Activity,HUVEC [9],55.3%
same,Activity,[10],Non-Toxic
same,IC50,[11],3.15 µM
same,Activity,HUVEC [12],Active
same,Activity,K562 [13],43.83%
same,Activity,K562 [14],38.84%
same,Activity,K562 [15],20.05%
same,Activity,K562 [16],39.94%
same,Activity,HUVEC [17],49.2%
same,Activity,K562 [18],13.44%
same,Activity,K562 [19],3.86%
same,Activity,[20],Non-Toxic
same,inhibition,HUVEC [21],Dose-dependent effect
same,Activity,K562 [22],11.54%
same,Activity,HUVEC [23],Active
